Calls of active or inactive are those of the source. The calls are words filed in the database; no cut-off is given here.
What was measured:
[1] = target: T1, Protein-serine/threonine kinase (Sus scrofa) (UniProt F1RUX3); assay: Inhibition of GRK2 in porcine trabecular meshwork cells assessed as F-actin depolymerization at 50 uM after 20 mins by Alexa-fluor 488-labelled phalloidin/DAPI staining assay relative to control
T1 sequence (whole entry): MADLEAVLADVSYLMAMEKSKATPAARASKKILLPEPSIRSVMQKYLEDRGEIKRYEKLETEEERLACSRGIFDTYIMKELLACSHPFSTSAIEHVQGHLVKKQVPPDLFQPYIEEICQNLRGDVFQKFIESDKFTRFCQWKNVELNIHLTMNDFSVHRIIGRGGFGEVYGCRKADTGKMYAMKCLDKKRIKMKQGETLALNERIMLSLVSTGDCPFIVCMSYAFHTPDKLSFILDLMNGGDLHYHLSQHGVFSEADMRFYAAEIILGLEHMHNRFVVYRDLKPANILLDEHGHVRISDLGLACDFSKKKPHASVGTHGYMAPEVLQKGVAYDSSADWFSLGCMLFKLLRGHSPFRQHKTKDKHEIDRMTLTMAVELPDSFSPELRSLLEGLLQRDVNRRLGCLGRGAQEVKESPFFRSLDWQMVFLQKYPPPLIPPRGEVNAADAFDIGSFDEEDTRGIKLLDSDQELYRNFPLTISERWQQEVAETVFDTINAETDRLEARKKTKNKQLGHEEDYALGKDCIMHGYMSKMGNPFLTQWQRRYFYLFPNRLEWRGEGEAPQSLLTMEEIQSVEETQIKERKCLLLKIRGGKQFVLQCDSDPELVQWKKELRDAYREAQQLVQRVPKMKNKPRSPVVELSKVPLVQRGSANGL

Felis catus [2] = assay: Antiglaucoma activity in cat assessed as decrease in intraocular pressure administered topically twice per day on eye measured after 1 to 23 hrs by pneumatonometer; assay type: functional, organism-based
[3] = target: G protein-coupled receptor kinase 6 (Homo sapiens, UniProt P43250); assay: Inhibition of GRK6 (unknown origin) after 90 to 120 mins by Kinase-Glo assay
G protein-coupled receptor kinase 6, sequence (P43250 whole entry): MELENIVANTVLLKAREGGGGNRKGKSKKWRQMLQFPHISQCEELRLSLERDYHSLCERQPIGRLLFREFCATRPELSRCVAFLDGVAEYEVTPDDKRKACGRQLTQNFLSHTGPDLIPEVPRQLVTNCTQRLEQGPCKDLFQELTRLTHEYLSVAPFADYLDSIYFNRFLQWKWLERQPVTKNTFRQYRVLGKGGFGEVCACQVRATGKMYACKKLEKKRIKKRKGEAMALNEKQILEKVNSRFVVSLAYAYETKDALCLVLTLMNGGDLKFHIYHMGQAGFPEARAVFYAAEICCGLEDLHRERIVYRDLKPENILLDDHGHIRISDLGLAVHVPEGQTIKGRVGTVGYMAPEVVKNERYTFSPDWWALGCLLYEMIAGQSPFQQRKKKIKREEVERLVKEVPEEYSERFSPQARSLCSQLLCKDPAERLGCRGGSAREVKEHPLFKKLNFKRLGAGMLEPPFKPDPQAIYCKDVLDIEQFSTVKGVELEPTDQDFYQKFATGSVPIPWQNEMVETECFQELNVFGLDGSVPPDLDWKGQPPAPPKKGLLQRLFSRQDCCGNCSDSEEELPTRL

[4] = target: G protein-coupled receptor kinase 5 (Homo sapiens, UniProt P34947); assay: Inhibition of GRK5 (unknown origin) after 90 to 120 mins by Kinase-Glo assay
G protein-coupled receptor kinase 5, sequence (P34947 whole entry): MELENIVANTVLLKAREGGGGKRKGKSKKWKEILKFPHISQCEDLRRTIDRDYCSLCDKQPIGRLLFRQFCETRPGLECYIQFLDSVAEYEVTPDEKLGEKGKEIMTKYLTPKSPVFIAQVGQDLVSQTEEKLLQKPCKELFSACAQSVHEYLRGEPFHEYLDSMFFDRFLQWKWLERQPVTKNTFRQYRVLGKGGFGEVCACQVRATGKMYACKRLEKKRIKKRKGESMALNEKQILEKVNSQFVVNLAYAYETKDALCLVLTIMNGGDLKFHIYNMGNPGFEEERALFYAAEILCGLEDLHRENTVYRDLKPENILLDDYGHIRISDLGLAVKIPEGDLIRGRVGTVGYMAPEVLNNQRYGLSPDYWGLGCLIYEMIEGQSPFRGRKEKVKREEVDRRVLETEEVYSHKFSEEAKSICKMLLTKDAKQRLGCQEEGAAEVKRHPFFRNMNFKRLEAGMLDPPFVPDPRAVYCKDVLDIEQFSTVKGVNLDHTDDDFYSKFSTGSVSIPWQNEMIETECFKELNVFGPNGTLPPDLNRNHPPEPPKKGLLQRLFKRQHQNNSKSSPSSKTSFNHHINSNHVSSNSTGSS

Felis catus [5] = assay: Antiglaucoma activity in cat assessed as decrease in intraocular pressure administered topically 4 times per day on eye measured after 1 to 23 hrs by pneumatonometer; assay type: functional, organism-based
[6] = target: T2, Beta-adrenergic receptor kinase 1 (Homo sapiens, UniProt P25098); assay: Inhibition of human GRK2 after 90 to 120 mins by Kinase-Glo assay
T2 sequence (P25098 whole entry): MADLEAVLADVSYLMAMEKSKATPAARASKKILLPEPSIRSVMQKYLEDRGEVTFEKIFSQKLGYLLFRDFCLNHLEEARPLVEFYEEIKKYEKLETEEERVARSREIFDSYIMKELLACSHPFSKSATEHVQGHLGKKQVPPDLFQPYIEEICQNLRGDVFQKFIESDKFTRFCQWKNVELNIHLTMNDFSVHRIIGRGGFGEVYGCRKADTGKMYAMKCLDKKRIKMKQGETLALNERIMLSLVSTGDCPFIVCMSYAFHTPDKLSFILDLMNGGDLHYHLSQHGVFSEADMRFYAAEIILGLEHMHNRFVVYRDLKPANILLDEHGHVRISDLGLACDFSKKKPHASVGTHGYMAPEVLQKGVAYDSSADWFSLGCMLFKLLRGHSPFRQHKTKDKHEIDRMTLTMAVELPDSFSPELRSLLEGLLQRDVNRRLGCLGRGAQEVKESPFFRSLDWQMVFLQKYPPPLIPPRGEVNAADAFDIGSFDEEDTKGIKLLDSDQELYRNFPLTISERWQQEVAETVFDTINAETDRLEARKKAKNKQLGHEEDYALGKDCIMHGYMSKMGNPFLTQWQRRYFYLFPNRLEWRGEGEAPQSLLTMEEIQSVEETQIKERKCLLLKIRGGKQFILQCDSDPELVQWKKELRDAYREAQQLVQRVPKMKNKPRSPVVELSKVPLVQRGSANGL

Felis catus [7] = assay: Antiglaucoma activity in cat assessed as decrease of dry eye syndrome administered topically twice per day on eye; assay type: functional, organism-based
Felis catus [8] = assay: Antiglaucoma activity in cat assessed as decrease of allergic symptoms administered topically twice per day on eye; assay type: functional, organism-based
Felis catus [9] = assay: Antiglaucoma activity in cat assessed as decrease of hyperemia administered topically; assay type: functional, organism-based
Felis catus [10] = assay: Antiglaucoma activity in cat assessed as decrease of redness administered topically; assay type: functional, organism-based
[11] = target: T3, Beta-adrenergic receptor kinase 1 (Homo sapiens) (UniProt P25098); assay: Inhibition of GRK2 in HEK293 cells overexpressing beta 2 adrenergic receptor assessed as increase in c-AMP accumulation in presence of isoproterenol; assay type: cell-based
T3 sequence (whole entry): T2 sequence (P25098 whole entry)

Felis catus [12] = assay: Antiglaucoma activity in cat assessed as decrease of ocular irritation administered topically; assay type: functional, organism-based; conditions: Eye

**Q.** With `CNC(=O)c1cccc(NCC(=O)N/N=C/c2c(Cl)cncc2Cl)c1` as the compound, how does the “GRK2 inhibition activity call (active/not active)” value [1] read?
**A.** Its value is “inactive”.

**Q.** For `C/C(=N\NC(=O)CNc1cccc(C(=O)Nc2ccccc2)c1)c1ccncc1`, which “GRK2 inhibition activity call (active/not active)” value [1] is on record?
**A.** Its value is “inactive”.

**Q.** Which Activity (Felis catus [2]) does the source give for `NC(=O)c1ccc(NCC(=O)N/N=C/c2c(Cl)cncc2Cl)cc1` here?
**A.** The Activity was “Active”.

**Q.** Which “GRK2 inhibition activity call (active/not active)” value [1] does the source give for `O=C(CNc1cccc(C(=O)NCCN2CCOCC2)c1)N/N=C/c1c(Cl)cncc1Cl` here?
**A.** The value was “inactive”.

**Q.** For `COc1cc(/C=N/NC(=O)CNc2cccc(Cl)c2)nc(OC)n1`, which “GRK2 inhibition activity call (active/not active)” value [1] is on record?
**A.** The value was “inactive”.

**Q.** Which Ki [3] does the source give for `O=C(CNc1cccc(C(=O)Nc2ccccc2)c1)N/N=C/c1c(Cl)cncc1Cl` here?
**A.** The Ki was greater than 10 µM.

**Q.** What about the “GRK2 inhibition activity call (active/not active)” value [1] of the same compound?
**A.** The value was “Active”.

**Q.** What does the source list for `O=C(CNc1cccc(C(=O)Nc2ccccc2)c1)N/N=C/c1ccncc1`?
**A.** GRK2 inhibition activity call (active/not active) [1]: Active; Ki [4]: > 10 µM

**Q.** With `O=C(CNc1cccc(C(=O)NCCN2CCOCC2)c1)N/N=C/c1ccncc1` as the compound, how does the Activity (Felis catus [5]) read?
**A.** The Activity was “Active”.

**Q.** `CCc1cccc(NCC(=O)N/N=C/c2c(Cl)cncc2Cl)c1` was tested. Which Ki [6] did it give?
**A.** The Ki was greater than 10 µM.

**Q.** How did the “GRK2 inhibition activity call (active/not active)” value [1] turn out when `COc1ccc(Oc2cccc(NCC(=O)NN=Cc3ccncc3)c2)cc1` (mixture of isomers) was run?
**A.** Its value is “inactive”.

**Q.** How did the Activity (Felis catus [7]) turn out when `Cc1ccc(Oc2cccc(NCC(=O)N/N=C/c3ccncc3)c2)cc1` was run?
**A.** The Activity was “Active”.

**Q.** And the Activity (Felis catus [8])?
**A.** Its Activity is “Active”.

**Q.** Which Ki [3] does the source give for `O=C(CNc1cccc(OCc2ccccc2)c1)N/N=C/c1ccncc1` here?
**A.** Its Ki is greater than 10 µM.

**Q.** Which “GRK2 inhibition activity call (active/not active)” value [1] does the source give for `O=C(CNc1cccc(C(=O)Nc2cccnc2)c1)N/N=C/c1ccncc1` here?
**A.** Its value is “Active”.

**Q.** How did the “GRK2 inhibition activity call (active/not active)” value [1] turn out when `O=C(CNc1ccc(Oc2ccccc2)cc1)N/N=C/c1c(Cl)cncc1Cl` was run?
**A.** The value was “inactive”.

**Q.** Which Activity (Felis catus [9]) does the source give for `NC(=O)c1cccc(NCC(=O)N/N=C/c2ccncc2)c1` here?
**A.** The Activity was “Active”.

**Q.** What about the Activity (Felis catus [10]) of the same compound?
**A.** Its Activity is “Active”.

**Q.** What about the inhibition [11] of the same compound?
**A.** Its inhibition is “Active”.

**Q.** And the Activity (Felis catus [12])?
**A.** Its Activity is “Active”.
